# Reference: US20250163387A1, “HUMAN PITUITARY NEUROENDOCRINE TUMOR ORGANOIDS AND METHODS OF MAKING AND USING THE SAME” (ARIZONA BOARD OF REGENTS OF THE UNIVERSITY OF ARIZONA, A …, priority 2022, published 2025)
# What was measured:
# iPSC^ctrl organoids = assay: Nuclear irregularity index (NII) morphometric analysis; type: cell-based, human; details: 500 nM
# Experimental: (§1) Nuclear Morphometric Analysis (NMA) using treated organoids was performed based on a published protocol that measures cell viability based on the changes in nuclear morphology of the cells using nuclear stain Hoechst or DAPI [30]. Images of organoid nuclei were analyzed using the ImageJ Nuclear Irregularity Index (NII) plugin for key parameters that included cell area, radius ratio, area box, aspect, and roundness. Using the published spreadsheet template, the NII of each cell was calculated with the following formula: NII=Aspect−Area Box+Radius Ratio+Roundness. The area vs NII of vehicle-treated cells were plotted as a scatter plot using the template and considered as the normal cell nuclei. The same plots were generated for each condition, and the NII and area of treated cells were compared to the normal nuclei, and classified as one of the following NMA populations: Normal (N; similar area and NII), Mitotic (S; similar area, slightly higher NII), Irregular (I; similar area, high NII), Small Regular (SR; apoptotic, low area and NII), Senescent (LR; high area, low NII), Small Irregular (SI; low area, high NII), or Large Irregular (LI; high area, high NII). […] The percentage of cells in each NII classification category were calculated and plotted as a histogram using GraphPad Prism.
# iPSC^USP48MV organoids = assay: as above; type: cell-based, human; details: 500 nM
# Experimental: as §1
compound,measurement,setting,value
CC#C[C@]1(O)CC[C@H]2[C@@H]3CCC4=CC(=O)CCC4=C3[C@@H](c3ccc(N(C)C)cc3)C[C@@]21C [Mifepristone],apoptotic cells by nuclear morphology (NII),iPSC^ctrl organoids,not observed
same,apoptotic cells by nuclear morphology (NII),iPSC^USP48MV organoids,not observed
